Measurements published in patent US9464326B2, “Total and phosphorylated IL-1 receptor-associated kinase-1 and IL-1 receptor-associated kinase-4 as a biomarker for cancer progression and chemotherapy resistance” (University of Maryland, Baltimore, priority 2012, dated 2016).
Where two headings read alike, the source gives them in different places.

Key:
CCRF-CEM cells = assay: Cellular senescence assay (SA-β-gal); format: cell-based, human; conditions: 5 μM, within 48 hours, maintained to 96 hour, FIG. 15A
Description: Analysis of senescence-associated β-galactosidase (SA-β-gal) activity was performed using the 96-Well Cellular Senescence Assay Kit (Cell Biolabs, San Diego, Calif.) as per the manufacturer's protocol. In brief, cells were washed with PBS, lysed with cell lysis buffer, and incubated at 37° C. with SA-β-gal substrate for 1 hour. A quantitative Cellular Senescence Assay Kit (SA-β-gal, Fluorometric) (Cell Biolabs, San Diego, Calif.) was used for more quantitative measurement of SA-β-gal activity by flow cytometry. Briefly, control and treated CCRF-CEM cells were incubated with 1× cell pretreatment solution in culture medium for 2 hrs, and the fluorogenic substrate was then directly added into the culture. After 4 hrs, the cells were washed and analyzed by flow cytometry.

[1] = system: panel of 27 other kinases; conditions: supplier (EMD Millipore) description, cited from earlier work
Molt-4 = assay: Proliferation (3H-thymidine) of Molt-4; format: cell-based, human; conditions: 3H-thymidine uptake, 72 h
Text: (§1) CCRF-CEM, CEM/C1, CEM/C2, CEM-C7, Jurkat, Loucy, Molt-4, HSB-2, SUP-T1, Hut 78, HH, Hut 102, MO, and H9 T-leukemia and T-lymphoma cell lines were purchased from the American Type Culture Collection (Manassas, Va., USA). All of the cell lines were initially expanded and cryopreserved within one month of receipt. Cells were typically used for 6 months at which time a fresh vial of cryopreserved cells was used. Total T cells from healthy donors were isolated via negative selection followed by positive selection using a CD3+ selection kit (Invitrogen, Carlsbad, Calif.). T cells were isolated from patients with T-ALL bone marrow or peripheral blood samples containing more than 70% leukemia cells using a CD2+ isolation kit (STEMCELL Technologies, Vancouver, Canada). All tissues were collected under institutional IRB-approved protocols and all participants gave written informed assent/consent. For in vitro experiments, T-ALL cells were cultured in AIM-V medium supplemented with 20% human AB serum in the presence of recombinant human stem cell factor (50 ng/mL; Amgen, Thousand Oaks, Calif.), insulin (20 nM; Sigma-Aldrich, St Louis, Mo., USA) and IL-7 (50 ng/mL; R&D Systems, Minneapolis, Minn., USA). […]
(§2) Cells were cultured in a 96-well plate (Corning Costar, Corning, N.Y., USA) with various concentrations of TLR ligands 1-9, starting at 10 μg/ml, in a final volume of 200 ul. […] After this time point, cells were harvested with a Packard Filter-Mate-96 cell harvester (Perkin Elmer, Waltham, Mass., USA) and counted on Packard Top Count-NXT (Perkin Elmer, Waltham, Mass., USA). Results were expressed as average counts per minute (cpm). […] Forty-eight hours later, proliferation (±SD) was determined by ^3H-thymidine incorporation. Alternatively, apoptosis was measured by flow cytometry after staining cells with Annexin-V (BD Pharmingen, San Diego, Calif., USA) and propidium iodide (Sigma). Cell number was counted under microscopy by staining cells with trypan blue. […]

Hut-78 = assay: Proliferation (3H-thymidine) of Hut-78; format: cell-based, human; conditions: 3H-thymidine uptake, 72 h
Text: as §1, §2

Compound	increase of SA-β-gal activity (CCRF-CEM cells)	activity against a panel of 27 other kinases [1]	activity against a panel of 27 other kinases ([1]; listed as IRAK.-1,-4 inhibitor)	Proliferative effects of TLR ligands (Molt-4)	Proliferative effects of TLR ligands (Hut-78)
O=C(Nc1nc2ccccc2n1CCN1CCOCC1)c1cccc([N+](=O)[O-])c1 [IRAK-1,-4 inhibitor]	three-fold	little to no activity	little activity		
tripalmitoyl-S-(bis(palmitoyloxy)propyl)-Cys-Ser-(Lys)3-Lys [Pam3Cysk4]				∘	∘
